Results published in article PMC7450057, “Enhancing intracellular accumulation and target engagement of PROTACs with reversible covalent chemistry” (Nature Communications, 2020).
Several values for one entry are separate records, joined by “and”; a condition that tells them apart may be missing. Equal values may be shown once. Entries after “also recorded” stand apart in the source; their conditions may differ.

Key:
[1] = target: truncated Cereblon protein (Homo sapiens, UniProt Q96SW2); experiment: CRBN binding assay (fluorescence quenching); settings: for Fluorescence Intensity: Supplementary Figure 11, replicates
Sequence of truncated Cereblon protein (Q96SW2 318-426): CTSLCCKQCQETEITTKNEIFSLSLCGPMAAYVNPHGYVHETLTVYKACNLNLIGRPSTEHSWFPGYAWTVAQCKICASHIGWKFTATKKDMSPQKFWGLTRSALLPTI
Description: The Kd values of compounds to CRBN were measured based on fluorescence quenching after compounds binding to CRBN. […] All the compounds were dissolved in DMSO (10 mM) as stock solutions. The final drug concentration is 100 nM. […] Fluorescence intensity values for control wells (assay buffer only) were subtracted from each data point prior to analysis. The Kd was calculated using GraphPad Prism with the following equation curve fit. I=I0−If×Kd/P0+Kd+If

MOLM-14 cells = experiment: Quantification of intracellular drug concentration by LC-MS; assay type: in vitro ADME; settings: for Intracellular concentration: Concentration of compound, AVE / intracellular amount, AVE / intracellular amount / Intracellular concentration: Concentration of compound: 200 nM; for Intracellular concentration: Concentration of compound, AVE / intracellular amount, AVE: average of 3 replicates; for intracellular amount: initial amount 0.4000 nmol; for Intracellular concentration: Concentration of compound: sample volume 400 µL
Description: MOLM-14 cells were seeded at a density of 0.5 × 10^6 per mL in 2 mL medium. […] The samples were immediately centrifuged at 12,000 × g for 15 min at 4 °C, then removing the supernatant. In all, 400 μL of NP-40 lysis buffer was added to the cell pellet and mixed thoroughly. The mixtures were rocked for 1 h at 4 °C and centrifuged at 12,000 × g for 15 min at 4 °C. Then the supernatant was transferred to new EP tubes. In total, 20 µL supernatant was extracted with 180 µL of acetonitrile (containing internal standard: 250 nM of RNC-Ctrl) and centrifuged at the same conditions described above. Take 75 μL of supernatant for liquid chromatography-mass spectrometry analysis.
The mass spectrometer was operated in positive SIM ion mode (fragmentor 120 V; cycle time 0.6 s/cycle; Agilent Technologies 6130 Quadrupole LC/MS).

BTK [2] = target: T1, BTK (Homo sapiens, UniProt Q06187); experiment: In vitro BTK kinase assay (PhosphoSens); assay type: biochemical; design: purchased SignalChem B10-10H-10
T1 sequence (Q06187 whole entry): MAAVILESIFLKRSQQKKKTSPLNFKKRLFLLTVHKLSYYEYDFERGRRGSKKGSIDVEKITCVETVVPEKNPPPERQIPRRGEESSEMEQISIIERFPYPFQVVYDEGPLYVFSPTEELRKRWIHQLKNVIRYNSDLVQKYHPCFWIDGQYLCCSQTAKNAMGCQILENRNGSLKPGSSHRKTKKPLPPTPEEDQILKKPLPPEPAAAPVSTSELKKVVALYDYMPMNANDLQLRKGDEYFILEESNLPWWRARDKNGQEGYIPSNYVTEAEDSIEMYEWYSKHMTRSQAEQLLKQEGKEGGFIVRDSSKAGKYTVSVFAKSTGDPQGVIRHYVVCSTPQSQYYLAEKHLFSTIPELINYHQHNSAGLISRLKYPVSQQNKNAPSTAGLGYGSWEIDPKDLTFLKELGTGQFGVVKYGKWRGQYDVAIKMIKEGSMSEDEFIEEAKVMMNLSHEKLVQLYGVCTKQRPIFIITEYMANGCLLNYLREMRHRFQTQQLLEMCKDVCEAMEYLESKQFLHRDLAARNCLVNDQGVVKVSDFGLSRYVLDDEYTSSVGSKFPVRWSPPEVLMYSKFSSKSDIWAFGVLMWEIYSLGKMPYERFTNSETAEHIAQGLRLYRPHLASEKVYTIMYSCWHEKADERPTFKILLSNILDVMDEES
Description: BTK kinase activity inhibition IC50 was measured by PhosphoSens® Kinase Assay Kit (Assay Quant Technologies Inc., Cat.# CSKS-AQT0101K). […] Active recombinant BTK was purchased from SignalChem (Cat.# B10-10H-10). All the drugs (3 warhead control and 4 PROTACs) were dissolved in DMSO (10 mM). […] To calculate the IC50, subtract the background fluorescence determined with the “no kinase” control for each time point from the total signal to obtain corrected Relative Fluorescence Units (RFU) values. Plot the corrected RFU vs. Time for each inhibitor concentration and determine the initial reaction rates (slope of the linear portion) for each progress curve for each inhibitor concentration. Then plot velocity (RFU corrected/minute) vs [inhibitor] and determine the IC50 using a 4-parameter logistic fit.

BTK [3] = target: T1, BTK; experiment: BTK degradation in MOLM-14 cells (western blot); assay type: cell-based; design: endogenous in cells; host or cells: MOLM-14; settings: for Quantification anti-BTK / anti-β-actin (BTK level vs DMSO): Figure 2b, duplicates

**Q.** With `CN(CC=CC(=O)N1CCCC(n2nc(-c3ccc(Oc4ccccc4)cc3)c3c(N)ncnc32)C1)CCCNC(=O)CNc1cccc2c1C(=O)N(C1CCC(=O)NC1=O)C2=O` (stereo not shown) [IRC-1] as the molecule, how does the “Fluorescence Intensity” value ([1]; CRBN 0 μM) read?
**A.** 2824.6 and 2800.6 and 2664.6

**Q.** What about the “Fluorescence Intensity” value ([1]; CRBN 0.734375 μM) of the same molecule?
**A.** 1780.6 and 1887.6 and 2192.6

**Q.** What about the “Fluorescence Intensity” value ([1]; CRBN 1.46875 μM) of the same molecule?
**A.** 1780.6 and 1687.6 and 2021.6

**Q.** And the “Fluorescence Intensity” value ([1]; CRBN 2.9375 μM)?
**A.** 1637.6 and 1410.6 and 1592.6

**Q.** What about the “Fluorescence Intensity” value ([1]; CRBN 5.875 μM) of the same molecule?
**A.** 1188.6 and 1223.6 and 1189.6

**Q.** And the “Fluorescence Intensity” value ([1]; CRBN 11.75 μM)?
**A.** 912.6 and 875.6 and 944.6

**Q.** And the “Fluorescence Intensity” value ([1]; CRBN 23.5 μM)?
**A.** 936.6 and 917.6 and 925.6

**Q.** And the Kd ([1]; truncated Cereblon protein, fluorescence quenching, triplicates, read-out: Kd)?
**A.** 1500 nM

**Q.** And the “Intracellular concentration: Concentration of compound, AVE” value (from here on “Intracellular concentration … AVE”) (MOLM-14 cells; 5 min)?
**A.** 0.0785 µM

**Q.** And the “intracellular amount, AVE” value (MOLM-14 cells; 5 min)?
**A.** 0.0314 nmol

**Q.** What about the intracellular amount (MOLM-14 cells; 5 min, single replicates) of the same molecule?
**A.** 0.0285 nmol and 0.0325 nmol and 0.0332 nmol

**Q.** And the “Intracellular concentration: Concentration of compound” value (MOLM-14 cells; 5 min, single replicates)?
**A.** 0.0713 µM and 0.0812 µM and 0.0831 µM

**Q.** What about the “Intracellular concentration … AVE” value (MOLM-14 cells; 15 min) of the same molecule?
**A.** 0.0779 µM

**Q.** What about the “intracellular amount, AVE” value (MOLM-14 cells; 15 min) of the same molecule?
**A.** 0.0311 nmol

**Q.** What about the intracellular amount (MOLM-14 cells; 15 min, single replicates) of the same molecule?
**A.** 0.0307 nmol and 0.0322 nmol and 0.0305 nmol

**Q.** And the “Intracellular concentration: Concentration of compound” value (MOLM-14 cells; 15 min, single replicates)?
**A.** 0.0767 µM and 0.0806 µM and 0.0763 µM

**Q.** What about the “Intracellular concentration … AVE” value (MOLM-14 cells; 30 min) of the same molecule?
**A.** 0.0702 µM

**Q.** What about the “intracellular amount, AVE” value (MOLM-14 cells; 30 min) of the same molecule?
**A.** 0.0281 nmol

**Q.** And the intracellular amount (MOLM-14 cells; 30 min, single replicates)?
**A.** 0.0259 nmol and 0.0296 nmol and 0.0288 nmol

**Q.** What about the “Intracellular concentration: Concentration of compound” value (MOLM-14 cells; 30 min, single replicates) of the same molecule?
**A.** 0.0648 µM and 0.0740 µM and 0.0719 µM

**Q.** And the “Intracellular concentration … AVE” value (MOLM-14 cells; 60 min)?
**A.** 0.0651 µM

**Q.** What about the “intracellular amount, AVE” value (MOLM-14 cells; 60 min) of the same molecule?
**A.** 0.0260 nmol

**Q.** What about the intracellular amount (MOLM-14 cells; 60 min, single replicates) of the same molecule?
**A.** 0.0274 nmol and 0.0266 nmol and 0.0240 nmol

**Q.** And the “Intracellular concentration: Concentration of compound” value (MOLM-14 cells; 60 min, single replicates)?
**A.** 0.0686 µM and 0.0666 µM and 0.0601 µM

**Q.** What about the “Intracellular concentration … AVE” value (MOLM-14 cells; 90 min) of the same molecule?
**A.** 0.0717 µM

**Q.** What about the “intracellular amount, AVE” value (MOLM-14 cells; 90 min) of the same molecule?
**A.** 0.0287 nmol

**Q.** And the intracellular amount (MOLM-14 cells; 90 min, single replicates)?
**A.** 0.0275 nmol and 0.0290 nmol and 0.0295 nmol

**Q.** And the “Intracellular concentration: Concentration of compound” value (MOLM-14 cells; 90 min, single replicates)?
**A.** 0.0688 µM and 0.0725 µM and 0.0738 µM

**Q.** What about the “Intracellular concentration … AVE” value (MOLM-14 cells; 120 min) of the same molecule?
**A.** 0.0652 µM

**Q.** And the “intracellular amount, AVE” value (MOLM-14 cells; 120 min)?
**A.** 0.0261 nmol

**Q.** And the intracellular amount (MOLM-14 cells; 120 min, single replicates)?
**A.** 0.0239 nmol and 0.0281 nmol and 0.0261 nmol

**Q.** What about the “Intracellular concentration: Concentration of compound” value (MOLM-14 cells; 120 min, single replicates) of the same molecule?
**A.** 0.0598 µM and 0.0703 µM and 0.0653 µM

**Q.** What about the “Intracellular concentration … AVE” value (MOLM-14 cells; 240 min) of the same molecule?
**A.** 0.0595 µM

**Q.** What about the “intracellular amount, AVE” value (MOLM-14 cells; 240 min) of the same molecule?
**A.** 0.0238 nmol

**Q.** What about the intracellular amount (MOLM-14 cells; 240 min, single replicates) of the same molecule?
**A.** 0.0228 nmol and 0.0239 nmol and 0.0246 nmol

**Q.** And the “Intracellular concentration: Concentration of compound” value (MOLM-14 cells; 240 min, single replicates)?
**A.** 0.0571 µM and 0.0598 µM and 0.0616 µM

**Q.** What about the Cellular concentration (MOLM-14 cells; 5 min, Mean) of the same molecule?
**A.** 0.0314 nmol/million cells

**Q.** And the Cellular concentration (MOLM-14 cells; 5 min, single replicates, MOLM-14, 200 nM)?
**A.** 0.0285 nmol/million cells and 0.0325 nmol/million cells and 0.0332 nmol/million cells

**Q.** What about the Cellular concentration (MOLM-14 cells; 15 min, Mean) of the same molecule?
**A.** 0.0311 nmol/million cells

**Q.** And the Cellular concentration (MOLM-14 cells; 15 min, single replicates, MOLM-14, 200 nM)?
**A.** 0.0307 nmol/million cells and 0.0322 nmol/million cells and 0.0305 nmol/million cells

**Q.** And the Cellular concentration (MOLM-14 cells; 30 min, Mean)?
**A.** 0.0281 nmol/million cells

**Q.** What about the Cellular concentration (MOLM-14 cells; 30 min, single replicates, MOLM-14, 200 nM) of the same molecule?
**A.** 0.0259 nmol/million cells and 0.0296 nmol/million cells and 0.0288 nmol/million cells

**Q.** And the Cellular concentration (MOLM-14 cells; 60 min, Mean)?
**A.** 0.0260 nmol/million cells and 0.026 nmol/million cells

**Q.** What about the Cellular concentration (MOLM-14 cells; 60 min, single replicates, MOLM-14, 200 nM) of the same molecule?
**A.** 0.0240 nmol/million cells and 0.0274 nmol/million cells and 0.0266 nmol/million cells and 0.024 nmol/million cells

**Q.** What about the Cellular concentration (MOLM-14 cells; 90 min, Mean) of the same molecule?
**A.** 0.0287 nmol/million cells

**Q.** And the Cellular concentration (MOLM-14 cells; 90 min, single replicates, MOLM-14, 200 nM)?
**A.** 0.0290 nmol/million cells and 0.0275 nmol/million cells and 0.029 nmol/million cells and 0.0295 nmol/million cells

**Q.** And the Cellular concentration (MOLM-14 cells; 120 min, Mean)?
**A.** 0.0261 nmol/million cells

**Q.** What about the Cellular concentration (MOLM-14 cells; 120 min, single replicates, MOLM-14, 200 nM) of the same molecule?
**A.** 0.0239 nmol/million cells and 0.0281 nmol/million cells and 0.0261 nmol/million cells

**Q.** What about the Cellular concentration (MOLM-14 cells; 240 min, Mean) of the same molecule?
**A.** 0.0238 nmol/million cells

**Q.** And the Cellular concentration (MOLM-14 cells; 240 min, single replicates, MOLM-14, 200 nM)?
**A.** 0.0228 nmol/million cells and 0.0239 nmol/million cells and 0.0246 nmol/million cells

**Q.** What about the IC50 (BTK [2]; AssayQuant BTK assay kit, 2.5 nM BTK, 1 mM ATP, duplicates, read-out: BTK inhibition IC50) of the same molecule?
**A.** 0.8 nM

**Q.** And the activity at 2.56 pM (BTK [2]; Supplementary Figure 5, drug concentration 2.56 pM, replicates, read-out: Inhibition(%))?
**A.** 86.2%

**Q.** What about the activity at 12.8 pM (BTK [2]; Supplementary Figure 5, drug concentration 12.8 pM, replicates, read-out: Inhibition(%)) of the same molecule?
**A.** 77.7%

**Q.** What about the activity at 64 pM (BTK [2]; Supplementary Figure 5, drug concentration 64 pM, replicates, read-out: Inhibition(%)) of the same molecule?
**A.** 78.1%

**Q.** And the activity at 0.00032 µM (BTK [2]; Supplementary Figure 5, drug concentration 320 pM, replicates, read-out: Inhibition(%))?
**A.** 65.7%

**Q.** And the activity at 0.0016 µM (BTK [2]; Supplementary Figure 5, drug concentration 1600 pM, replicates, read-out: Inhibition(%))?
**A.** 28%

**Q.** And the activity at 0.008 µM (BTK [2]; Supplementary Figure 5, drug concentration 8000 pM, replicates, read-out: Inhibition(%))?
**A.** 4.02%

**Q.** And the activity at 0.2 µM (BTK [2]; Supplementary Figure 5, drug concentration 200000 pM, replicates, read-out: Inhibition(%))?
**A.** 0.667%

**Q.** And the activity at 1 µM (BTK [2]; Supplementary Figure 5, drug concentration 1000000 pM, replicates, read-out: Inhibition(%))?
**A.** 2.16%

**Q.** What about the “diminished BTK inhibitory activity compared with corresponding warhead control” value (BTK [2]; ratio of IC50 values) of the same molecule?
**A.** < 3 fold

**Q.** What about the “Quantification anti-BTK / anti-β-actin (BTK level vs DMSO)” value (BTK [3]; 8 nM) of the same molecule?
**A.** 93.1337 and 89.8918

**Q.** What about the “Quantification anti-BTK / anti-β-actin (BTK level vs DMSO)” value (BTK [3]; 40 nM) of the same molecule?
**A.** 73.5656 and 73.5943

**Q.** What about the “Quantification anti-BTK / anti-β-actin (BTK level vs DMSO)” value (BTK [3]; 200 nM) of the same molecule?
**A.** 64.1549 and 63.4726

**Q.** What about the “BTK degradation (in words)” value (BTK [3]; MOLM-14 cells, indicated doses, 24 h) of the same molecule?
**A.** induced inefficient BTK degradation; also recorded: very little BTK degradation was observed
